# Where “and” joins values, the source holds several entries; their conditions need not be identical. Identical values can stand only once. Like-named read-outs stand apart in the source and are kept apart here. Marks after values point to notes of the source that are not given here.
# Legend:
# [1] = target: Lister 427WT T. b. brucei; test: Adenosine deaminase susceptibility (drug sensitivity with/without 2 µM deoxycoformycin); assay type: cell-based, Trypanosoma brucei brucei
# Protocol: Drug susceptibility tests with Lister 427WT, TbAT1-KO[48], B48[26] and ISMR1[27] were performed using an assay based on the viability indicator dye resazurin in 96-well plates, each well containing 2 × 10^4 cells. The plates were incubated for 48 h with a doubling dilution series of the test compounds in HMI-9/fetal bovine serum at 37 °C/5% CO2 (23 dilutions starting at 100 µM, except for the pentamidine control (50 µM)), after which resazurin (20 µL of 125 µg mL^−1 resazurin sodium salt solution was added to each well (containing 200 µL of cells and test compound)) was added to each well and the plates incubated for another 24 h. Fluorescence was determined using a FLUOstar Optima (BMG Labtech, Durham, NC) and the results fitted to a sigmoid curve with variable slope using Prism 5.0 or Prism 7.04 (GraphPad, San Diego, CA). […]
# Adenosine deaminase susceptibility
# in the presence or absence of 2 µM 2’-deoxycoformycin. […]
# [2] = tested on: B48: pentamidine, diminazene and melaminophenyl arsenical resistant T. brucei line; test: microbe, parasite or virus in culture; assay type: cell-based, Trypanosoma brucei brucei; details: for EC50: Trypanosoma brucei
# [3] = tested on: TbAT1-KO: T. brucei cell line lacking the TbAT1(P2) transporter gene; test: microbe, parasite or virus in culture; assay type: cell-based, Trypanosoma brucei brucei; details: for EC50: Trypanosoma brucei
# Protocol: (§1) Drug susceptibility tests with Lister 427WT, TbAT1-KO[48], B48[26] and ISMR1[27] were performed using an assay based on the viability indicator dye resazurin in 96-well plates, each well containing 2 × 10^4 cells. The plates were incubated for 48 h with a doubling dilution series of the test compounds in HMI-9/fetal bovine serum at 37 °C/5% CO2 (23 dilutions starting at 100 µM, except for the pentamidine control (50 µM)), after which resazurin (20 µL of 125 µg mL^−1 resazurin sodium salt solution was added to each well (containing 200 µL of cells and test compound)) was added to each well and the plates incubated for another 24 h. Fluorescence was determined using a FLUOstar Optima (BMG Labtech, Durham, NC) and the results fitted to a sigmoid curve with variable slope using Prism 5.0 or Prism 7.04 (GraphPad, San Diego, CA).
# [4] = tested on: ISMR1: isometamidium-resistant T. brucei cell line; test: microbe, parasite or virus in culture; assay type: cell-based, Trypanosoma brucei brucei; details: for EC50: Trypanosoma brucei
# Protocol: as §1
# [5] = tested on: T. b. brucei Lister 427WT; test: Drug susceptibility test (resazurin), Lister 427WT; assay type: cell-based, Trypanosoma brucei brucei; details: Trypanosoma brucei
# Protocol: as §1
# [6] = tested on: T. b. brucei AnTAR1.1 PPYRE9; test: Mouse model of stage 2 HAT (BLI, parasitaemia, SL-RNA qPCR); assay type: in vivo; details: for BLI of the head region, RLU data: individual animals; for RLU data, individual mice: Melarsoprol
# Protocol: […] Treatment was initiated at 21 dpi. […] Mice were injected i.p. with […] of D-luciferin and anaesthetised using isoflurane. The luminescent signal was acquired from both the dorsal and ventral side of the animals. […] Animals subjected to the different treatment schemes (from 4 wpi) were additionally imaged over a 5 min exposure time for enhanced sensitivity. […] Tissues were weighed and RNA was extracted using the RNeasy Plus Mini Kit (Qiagen) according to the manufacturer’s recommendations. […] A list of primers used is provided in the Supplementary Methods section of the Supplementary Information. BLI images from the IVIS Spectrum In Vivo Imaging System (Perkin Elmer) were analysed using LivingImage v4.3.1. SoftWoRx suite 2.0 for microscopy (image deconvolution), then processing using the Fiji software.
# [7] = DCF +, single replicate, read-out: EC50
# [8] = DCF -, single replicate, read-out: EC50
# [9] = source data, read-out: B48 EC50, AVG
# [10] = read-out: TbAT1-KO EC50, AVG, source data
# [11] = source data, read-out: ISMR1 EC50, AVG
# [12] = source data, read-out: s427 EC50, AVG
# [13] = resistance factor vs Lister 427WT
smiles,measurement,setting,value
Nc1ncnc2c1c(Br)cn2[C@@H]1O[C@H](CO)C[C@H]1O [FH7429-up (10)],EC50,"[1]; DCF +, average of replicates, read-out: EC50 AVG",1.9 nM
same,EC50,"[1]; DCF +, read-out: EC50 Reported value",1.9 ± 0.2 nM
same,EC50,[1]; [7],2.01 nM and 2.18 nM and 1.52 nM
same,EC50,"[1]; DCF -, average of replicates, read-out: EC50 AVG",2.02 nM
same,EC50,"[1]; DCF -, read-out: EC50 Reported value",2 ± 0.1 nM
same,EC50,[1]; [8],1.9 nM and 1.86 nM and 2.3 nM
Nc1ncnc2c1c(-c1ccccn1)cn2[C@@H]1O[C@H](CO)[C@@H](O)[C@H]1O [Compound 7],EC50,[2]; [9],265 nM
same,EC50,[3]; [10],404 nM
same,EC50,[4]; [11],433 nM
same,EC50,[5]; [12],170 nM
"Nc1nc(N)nc(Nc2ccc([As]3SCC(CO)S3)cc2)n1 (centres unmarked) [Melarsoprol, reference compound]","BLI of the head region, RLU data","[6]; 3 wpi (start of treatment, 21 dpi)",20700000 RLU and 53700000 RLU
same,"BLI of the head region, RLU data",[6]; 4 wpi,96900 RLU and 114000 RLU
same,"BLI of the head region, RLU data",[6]; 5 wpi,83900 RLU and 96500 RLU
same,"BLI of the head region, RLU data",[6]; 6 wpi,85000 RLU and 111000 RLU
same,"BLI of the head region, RLU data",[6]; 7 wpi,90100 RLU and 74800 RLU
same,"BLI of the head region, RLU data",[6]; 8 wpi,81700 RLU and 77100 RLU
same,"BLI of the head region, RLU data",[6]; 9 wpi,73000 RLU and 85000 RLU
same,"RLU data, individual mice",[6]; 3 wpi,133100000 RLU and 14890000 RLU
same,"RLU data, individual mice",[6]; 4 wpi,121700 RLU and 135100 RLU
same,"RLU data, individual mice",[6]; 5 wpi,112200 RLU and 109500 RLU
same,"RLU data, individual mice",[6]; 6 wpi,106700 RLU and 93980 RLU
same,"RLU data, individual mice",[6]; 7 wpi,99910 RLU and 79400 RLU
same,"RLU data, individual mice",[6]; 8 wpi,117400 RLU and 101400 RLU
same,"RLU data, individual mice",[6]; 9 wpi,93050 RLU and 80330 RLU
same,"RLU data, individual mice",[6]; 11 wpi,77170 RLU and 73440 RLU
same,"RLU data, individual mice",[6]; 12 wpi,62170 RLU and 64300 RLU
same,"RLU data, individual mice",[6]; 14 wpi,67840 RLU and 67090 RLU
same,"parasite burdens in brain, spleen and fat by SL-RNA qPCR",[6]; tissues collected at 121 dpi,complete absence of parasite burdens
same,luminescent signal in the head region,[6]; to levels similar to a non-infected control mouse,rapid decline of the signal
"CC[n+]1c(-c2ccccc2)c2cc(N/N=N/c3cccc(C(=N)N)c3)ccc2c2ccc(N)cc21 [Isometamidium, reference compound]",EC50,"[2]; mean and SEM, n = 3, read-out: B48 EC50",560 ± 130 nM
same,EC50,[2]; [9],514 nM
same,RF (B48),[2]; [13],0.85
same,EC50,[3]; [10],736 nM
same,EC50,"[3]; read-out: TbAT1-KO EC50, mean and SEM, n = 3",750 ± 140 nM
same,RF (TbAT1-KO),[3]; resistance factor: ratio of EC50 of resistant and Lister 427WT,1.2
same,EC50,"[4]; mean and SEM, n = 3, read-out: ISMR1 EC50",3100 ± 500 nM
same,EC50,[4]; [11],5050 nM
same,RF (ISMR1),[4]; [13],4.8***
same,EC50,"[5]; read-out: Lister 427 EC50, mean and SEM, n = 3",650 ± 85 nM
same,EC50,[5]; [12],758 nM
Nc1ncnc2c1ccn2[C@@H]1O[C@H](CO)[C@@H](O)[C@H]1O [Tubercidin (6)],EC50,[1]; [7],173 nM and 283 nM and 470 nM
same,EC50,[1]; [8],227 nM and 250 nM
same,EC50,"[1]; Trypanosoma brucei, DCF +, average of replicates, read-out: EC50 AVG",309 nM
same,EC50,"[1]; Trypanosoma brucei, DCF +, read-out: EC50 Reported value",310 ± 70 nM
same,EC50,"[1]; Trypanosoma brucei, DCF -, average of replicates, read-out: EC50 AVG",223 nM
same,EC50,"[1]; Trypanosoma brucei, DCF -, read-out: EC50 Reported value",220 ± 10 nM
same,EC50,"[1]; Trypanosoma brucei, DCF -, single replicate, read-out: EC50",194 nM

# Source: article PMC6895180 (Nature Communications, 2019)
